Calls of active or inactive are those of the source. The calls are words filed in the database; no cut-off is given here.
How the values were obtained:
[1] = test system: dsDNA; assay: Binding affinity to double stranded DNA ssab (unknown origin) at 20 uM by UV-Visible absorption spectroscopic analysis; type: nucleic-acid assay
[2] = target: dsDNA; assay: Binding affinity to double stranded DNA AT15-4AT (unknown origin) incubated for 0.5 hrs in presence of different concentration DNA by fluorescence spectra analysis; type: nucleic-acid assay
[3] = test system: PC-3; assay: Antiproliferative activity against human PC-3 cells assessed as reduction in cell viability incubated for 24 hrs by CCK-8 assay; type: functional, cell-based; conditions: PC-3, 24 h
[4] = target: dsDNA; assay: Binding affinity to double stranded DNA AT15-6AT (unknown origin) incubated for 0.5 hrs in presence of different concentration DNA by fluorescence spectra analysis; type: nucleic-acid assay
[5] = target: Quadruplex DNA; assay: Binding affinity to human G4-quadruplex Bcl2 DNA 5'- CGGGCGCGGGAGGAAGGGGGCGGGAGC-3' assessed as change in fluorescence intensity at 1 uM incubated for 0.5 hrs in presence of different concentrations of DNA by fluorescence spectra analysis; type: nucleic-acid assay
[6] = test system: Quadruplex DNA; assay: Binding affinity to human G4-quadruplex c-kit2 DNA 5'- CGGGCGGGCGCGAGGGAGGGT-3' assessed as change in fluorescence intensity at 1 uM incubated for 0.5 hrs by fluorescence spectra analysis; type: nucleic-acid assay
[7] = test system: A-375; assay: Induction of cell cycle arrest in human A-375 cells assessed assessed as cell accumulation at S phase at 5 uM incubated for 24 hrs by propidium iodide staining based flow cytometry (reference value: 30.05 %); type: functional
[8] = test system: Calf thymus DNA; assay: Displacement of Hoechst 33342 from calf thymus DNA incubated for 0.5 hrs by SpectraMax M2 microplate reader analysis; type: nucleic-acid assay, Bos taurus
[9] = test system: Quadruplex DNA; assay: Binding affinity to human G4-quadruplex Oxy28 DNA 5'- GGGGTTTTGGGGTTTTGGGGTTTTGGGG -3' assessed as change in fluorescence intensity at 1 uM incubated for 0.5 hrs by fluorescence spectra analysis; type: nucleic-acid assay
[10] = test system: LoVo; assay: Antiproliferative activity against human LoVo cells assessed as reduction in cell viability incubated for 48 hrs by CCK-8 assay; type: functional, cell-based
[11] = target: dsDNA; assay: Binding affinity to double stranded DNA ssab3 (unknown origin) incubated for 0.5 hrs in presence of different concentration DNA by fluorescence spectra analysis; type: nucleic-acid assay
[12] = test system: A2780/Taxol; assay: Antiproliferative activity against human A2780T cells assessed as reduction in cell viability incubated for 48 hrs by CCK-8 assay; type: functional, cell-based
[13] = test system: Quadruplex DNA; assay: Binding affinity to human G4-quadruplex KRAS DNA 5'- AGGGCGGTGTGGGAAGAGGGAAGAGGGGGAGG-3' at 10 uM by CD spectra analysis; type: nucleic-acid assay
[14] = target: Quadruplex DNA; assay: Displacement of ThT from human G4-quadruplex Oxy28 DNA 5'- GGGGTTTTGGGGTTTTGGGGTTTTGGGG -3' incubated for 0.5 hrs by SpectraMax M2 microplate reader analysis; type: nucleic-acid assay
[15] = target: dsDNA; assay: Displacement of Hoechst 33342 from double stranded DNA ssab (unknown origin) incubated for 0.5 hrs by SpectraMax M2 microplate reader analysis; type: nucleic-acid assay
[16] = test system: A-375; assay: Induction of apoptosis in human A-375 cells assessed assessed as necrotic cells at 5 uM incubated for 24 hrs by Annexin V-Elab Fluor 647/propidium iodide staining based flow cytometry (reference value: 1.45 %); type: functional
[17] = target: dsDNA; assay: Binding affinity to double stranded DNA ssab (unknown origin) incubated for 0.5 hrs in presence of different concentration DNA by fluorescence spectra analysis; type: nucleic-acid assay
[18] = target: dsDNA; assay: Binding affinity to double stranded DNA ssab2 (unknown origin) incubated for 0.5 hrs in presence of different concentration DNA by fluorescence spectra analysis; type: nucleic-acid assay
[19] = test system: dsDNA; assay: Binding affinity to double stranded DNA AT9 (unknown origin) incubated for 0.5 hrs in presence of different concentration DNA by fluorescence spectra analysis; type: nucleic-acid assay
[20] = test system: A-375; assay: Induction of cell cycle arrest in human A-375 cells assessed assessed as cell accumulation at G0/G1 phase at 5 uM incubated for 24 hrs by propidium iodide staining based flow cytometry (reference value: 54.25 %); type: functional
[21] = target: dsDNA; assay: Binding affinity to double stranded DNA AT15-2AT (unknown origin) incubated for 0.5 hrs in presence of different concentration DNA by fluorescence spectra analysis; type: nucleic-acid assay
[22] = test system: A-375; assay: Induction of apoptosis in human A-375 cells assessed assessed as late apoptotic cells at 5 uM incubated for 24 hrs by Annexin V-Elab Fluor 647/propidium iodide staining based flow cytometry (reference value: 6.31 %); type: functional
[23] = test system: Quadruplex DNA; assay: Binding affinity to human G4-quadruplex Pu27 DNA 5'- TGGGGAGGGTGGGGAGGGTGGGGAAGG-3' at 20 uM by UV-Visible absorption spectroscopic analysis; type: nucleic-acid assay
[24] = test system: Quadruplex DNA; assay: Binding affinity to human G4-quadruplex c-kit2 DNA 5'- CGGGCGGGCGCGAGGGAGGGT-3' at 20 uM by UV-Visible absorption spectroscopic analysis; type: nucleic-acid assay
[25] = test system: A549/TR; assay: Antiproliferative activity against human A549/Taxol cells assessed as reduction in cell viability incubated for 48 hrs by CCK-8 assay; type: functional, cell-based
[26] = target: Quadruplex DNA; assay: Binding affinity to human G4-quadruplex c-kit2 DNA 5'- CGGGCGGGCGCGAGGGAGGGT-3' assessed as change in fluorescence intensity at 1 uM incubated for 0.5 hrs in presence of different concentrations of DNA by fluorescence spectra analysis; type: nucleic-acid assay
[27] = test system: A-375; assay: Inhibition of RNA synthesis in human A-375 cells at 5 uM incubated for 24 hrs by EU incorporation based flow cytometry analysis; type: functional, cell-based
[28] = test system: Quadruplex DNA; assay: Binding affinity to human G4-quadruplex Bcl2 DNA 5'- CGGGCGCGGGAGGAAGGGGGCGGGAGC-3' at 20 uM by UV-Visible absorption spectroscopic analysis; type: nucleic-acid assay
[29] = target: Quadruplex DNA; assay: Displacement of ThT from human G4-quadruplex c-kit2 DNA 5'- CGGGCGGGCGCGAGGGAGGGT-3' incubated for 0.5 hrs by SpectraMax M2 microplate reader analysis; type: nucleic-acid assay

Structure (SMILES) | Activity [1] | EC50 [2] [nM] | EC50 [4] [nM] | Kd [5] [nM] | Activity [6] | Activity [7] [%] | DC50 [8] [nM] | Activity [9] | EC50 [11] [nM] | Activity [13] | DC50 [14] [nM] | DC50 [15] [nM] | Activity [16] [%] | EC50 [17] [nM] | EC50 [18] [nM] | Activity [20] [%] | EC50 [21] [nM] | Activity [22] [%] | Activity [23] | Activity [24] | other results
COc1ccc2cc3[n+](cc2c1OC)CCc1cc2c(cc1-3)OCO2 [BERBERINE] | inactive | 230 | 400 | 2440 | Active | 28.42 | 30700 | Active | 230 | inactive | 3100 | 22100 | 56.1 | 1040 | 100 | 56.99 | 150 | 7.26 | Active | Active | IC50 [3]: ≥ 24300 nM; IC50 [10]: ≥ 24300 nM; IC50 [12]: ≥ 24300 nM; Activity [19]: inactive; IC50 [25]: ≥ 24300 nM; Kd [26]: 4220 nM; inhibition [27]: inactive; Activity [28]: Active; DC50 [29]: 690 nM
COc1ccc2c(c[n+](C)c3c4cc5c(cc4ccc23)OCO5)c1OC [CHELERYTHRINE] | Active | 1150 | 1090 | 5800 | Active | 33.02 | 6700 | Active | 1290 | inactive | 1150 | 3490 | 6.96 | 1060 | 1060 | 36.15 | 1120 | 35.2 | Active | Active | Activity [19]: inactive; Activity [26]: inactive; inhibition [27]: Active; Activity [28]: Active; DC50 [29]: 550 nM
c1c2c(cc3c1OCO3)-c1cc3ccc4c(c3c[n+]1CC2)OCO4 [COPTISINE] | inactive | 5570 | 8040 | 1150 | Active | 28.21 | 31400 | Active | 5840 | inactive | 580 | 23000 | 84.6 | 5570 | 7250 | 57.31 | 3920 | 15.3 | Active | Active | IC50 [3]: ≥ 24300 nM; IC50 [10]: ≥ 24300 nM; IC50 [12]: ≥ 24300 nM; EC50 [19]: 7120 nM; IC50 [25]: ≥ 24300 nM; Kd [26]: 2590 nM; inhibition [27]: inactive; Activity [28]: Active; DC50 [29]: 170 nM
C[n+]1cc2c3c(ccc2c2ccc4cc5c(cc4c21)OCO5)OCO3 [SANGUINARIUM] | Active | 770 | 1230 | 11000 | Active | 31.29 | 5870 | Active | 1480 | inactive | 740 | 3210 | 29.3 | 740 | 1630 | 40.85 | 1070 | 49.5 | Active | Active | Activity [19]: inactive; Activity [26]: inactive; inhibition [27]: Active; Activity [28]: Active; DC50 [29]: 250 nM
